Patent US4401660A, “Ester derivatives of 5-O-mycaminosyl tylonolide and method of using same” (Eli Lilly and Company, priority 1981, dated 1983)
Read-outs that look alike come from different tables or passages of the source.

Key:
[1] = system: Haemophilus influenzae Holt; experiment: MIC, standard agar-dilution assay (Table II); assay type: cell-based; set-up: unit not given here; conditions: ampicillin-sensitive strain
Experimental: (§1) The MIC's in Table II were determined by standard agar-dilution assays. The MIC's in Table III were obtained using a conventional broth-dilution microtiter test.

[2] = system: Haemophilus influenzae R252; experiment: MIC, standard agar-dilution assay (Table II); assay type: cell-based; set-up: unit not given here; conditions: Haemophilus influenzae R252, ampicillin-resistant strain
Experimental: as §1

[3] = system: Staphylococcus aureus S13E; experiment: MIC, standard agar-dilution assay (Table II); assay type: cell-based; set-up: unit not given here
Experimental: as §1

[4] = system: Staphylococcus aureus V41; experiment: MIC, standard agar-dilution assay (Table II); assay type: cell-based; set-up: unit not given here; conditions: Staphylococcus aureus V41, penicillin-resistant strain
Experimental: as §1

[5] = system: Staphylococcus aureus X1.1; experiment: MIC, standard agar-dilution assay (Table II); assay type: cell-based; set-up: unit not given here
Experimental: as §1

[6] = system: Staphylococcus aureus X400; experiment: MIC, standard agar-dilution assay (Table II); assay type: cell-based; set-up: unit not given here; conditions: Staphylococcus aureus X400, methicillin-resistant strain
Experimental: as §1

[7] = system: Staphylococcus epidermidis EPI1; experiment: MIC, standard agar-dilution assay (Table II); assay type: cell-based; set-up: unit not given here
Experimental: as §1

[8] = system: Staphylococcus epidermidis EPI2; experiment: MIC, standard agar-dilution assay (Table II); assay type: cell-based; set-up: unit not given here
Experimental: as §1

[9] = system: Streptococcus Group D 9960; experiment: MIC, standard agar-dilution assay (Table II); assay type: cell-based; set-up: unit not given here
Experimental: as §1

[10] = system: Streptococcus Group D X66; experiment: MIC, standard agar-dilution assay (Table II); assay type: cell-based; set-up: unit not given here
Experimental: as §1

[11] = system: Streptococcus pneumoniae Park I; experiment: MIC, standard agar-dilution assay (Table II); assay type: cell-based; set-up: unit not given here
Experimental: as §1

[12] = system: Streptococcus pyogenes C203; experiment: MIC, standard agar-dilution assay (Table II); assay type: cell-based; set-up: unit not given here
Experimental: as §1

[13] = system: Mycoplasma gallisepticum; experiment: MIC, broth-dilution microtiter test (Table III); assay type: cell-based; set-up: unit not given here
Experimental: as §1

[14] = system: Mycoplasma hyorhinis; experiment: MIC, broth-dilution microtiter test (Table III); assay type: cell-based; set-up: unit not given here
Experimental: as §1

[15] = system: Mycoplasma synoviae; experiment: MIC, broth-dilution microtiter test (Table III); assay type: cell-based; set-up: unit not given here
Experimental: as §1

[16] = system: Pasteurella haemolytica 22C; experiment: MIC, broth-dilution microtiter test (Table III); assay type: cell-based; set-up: unit not given here
Experimental: as §1

[17] = system: Pasteurella haemolytica 23C; experiment: MIC, broth-dilution microtiter test (Table III); assay type: cell-based; set-up: unit not given here
Experimental: as §1

[18] = system: Pasteurella haemolytica 41D; experiment: MIC, broth-dilution microtiter test (Table III); assay type: cell-based; set-up: unit not given here
Experimental: as §1

[19] = system: Pasteurella multocida 17E; experiment: MIC, broth-dilution microtiter test (Table III); assay type: cell-based; set-up: unit not given here; conditions: bovine isolate
Experimental: as §1

[20] = system: Pasteurella multocida 22A; experiment: MIC, broth-dilution microtiter test (Table III); assay type: cell-based; set-up: unit not given here
Experimental: as §1

[21] = system: Pasteurella multocida 40G; experiment: MIC, broth-dilution microtiter test (Table III); assay type: cell-based; set-up: unit not given here
Experimental: as §1

[22] = system: Pasteurella multocida 60A; experiment: MIC, broth-dilution microtiter test (Table III); assay type: cell-based; set-up: unit not given here; conditions: avian isolate
Experimental: as §1

[23] = system: Pasteurella multocida 68C; experiment: MIC, broth-dilution microtiter test (Table III); assay type: cell-based; set-up: unit not given here
Experimental: as §1

[24] = system: Staphylococcus aureus; experiment: MIC, broth-dilution microtiter test (Table III); assay type: cell-based; set-up: unit not given here
Experimental: as §1

[25] = system: Streptococcus sp. 80; experiment: MIC, broth-dilution microtiter test (Table III); assay type: cell-based; set-up: unit not given here
Experimental: as §1

[26] = system: Streptococcus pyogenes C203; experiment: ED50 in mice with experimental infections (Table IV); assay type: in vivo; conditions: Streptococcus pyogenes, doses given 1 and 4 hours postinfection
How it was run: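 Read-out is ED50, the mg/kg dose protecting half of infected mice; values refer to each of two doses, given 1 and 4 hours after infection.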

[27] = system: Pasteurella multocida; experiment: Treatment of Pasteurella infections in chicks (Table V); assay type: in vivo, one-day-old chicks; conditions: Pasteurella multocida, sc, 4 h; 30 mg/kg by subcutaneous injection one and four hours post challenge; read-out: Deaths in Treated Chicks/Number Treated (converted)
How it was run: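 Dosing was 30 mg/kg by subcutaneous injection, one and four hours after challenge. Day-old chicks received 0.1 ml of a 10^-3 dilution of a 20-hour tryptose broth culture of avian P. multocida subcutaneously. Nonmedicated infected chicks served as controls, ten per group.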

[28] = C203, oral, read-out: ED50, Oral
[29] = C203, sc, subcutaneous, read-out: ED50, Subcutaneous

SMILES	minimal inhibitory concentration (MIC) [1]	minimal inhibitory concentration (MIC) [2]	minimal inhibitory concentration (MIC) [3]	minimal inhibitory concentration (MIC) [4]	minimal inhibitory concentration (MIC) [5]	minimal inhibitory concentration (MIC) [6]	minimal inhibitory concentration (MIC) [7]	minimal inhibitory concentration (MIC) [8]	minimal inhibitory concentration (MIC) [9]	minimal inhibitory concentration (MIC) [10]	minimal inhibitory concentration (MIC) [11]	minimal inhibitory concentration (MIC) [12]	minimal inhibitory concentration (MIC) [13]	minimal inhibitory concentration (MIC) [14]	minimal inhibitory concentration (MIC) [15]	minimal inhibitory concentration (MIC) [16]	minimal inhibitory concentration (MIC) [17]	minimal inhibitory concentration (MIC) [18]	minimal inhibitory concentration (MIC) [19]	minimal inhibitory concentration (MIC) [20]	also measured
CCC1OC(=O)CC(O)C(C)C(OC2OC(C)C(O)C(N(C)C)C2O)C(CC=O)CC(C)C(=O)C=CC(C)=CC1COC(=O)NCc1ccccc1 (centres unmarked) [Compound 76]	0.5	1	0.125	0.125	0.125	0.25	0.125	0.125	0.125	0.25	0.015	0.06	0.097	0.78	< 0.048	6.25	3.12	3.12	6.25	> 50	minimal inhibitory concentration (MIC) [21]: 6.25; minimal inhibitory concentration (MIC) [22]: 6.25; minimal inhibitory concentration (MIC) [23]: 3.12; minimal inhibitory concentration (MIC) [24]: 0.39; minimal inhibitory concentration (MIC) [25]: 0.39; ED50 [26, 28]: > 100 mg/kg; ED50 [26, 29]: 25 mg/kg; mortality at 30 mg/kg [27]: 100%
CCC(=O)OCC1C=C(C)C=CC(=O)C(C)CC(CC=O)C(OC2OC(C)C(O)C(N(C)C)C2OC(C)=O)C(C)C(O)CC(=O)OC1CC (centres unmarked) [Compound 12, 2'-O-Acetyl-23-O-propionyl-OMT]	2	8	0.5	0.5	0.5	0.5	0.25	0.25	0.5	0.5	0.125	0.25	< 0.05	3.12	< 0.05	6.25	3.12	3.12	1.56	0.78	minimal inhibitory concentration (MIC) [21]: 0.78; minimal inhibitory concentration (MIC) [22]: 1.56; minimal inhibitory concentration (MIC) [23]: 1.56; minimal inhibitory concentration (MIC) [24]: 0.39; minimal inhibitory concentration (MIC) [25]: 0.39; ED50 [26, 28]: 150 mg/kg; ED50 [26, 29]: 8.1 mg/kg; mortality at 30 mg/kg [27]: 0%
CCC(=O)OCC1C=C(C)C=CC(=O)C(C)CC(CC=O)C(OC2OC(C)C(O)C(N(C)C)C2O)C(C)C(O)CC(=O)OC1CC (centres unmarked) [Compound 14, 23-O-Propionyl-OMT]	1	4	0.25	0.25	0.25	0.25	0.125	0.125	0.25	0.25	0.125	0.125	0.05	6.25	0.05	6.25	3.12	6.25	1.56	3.12	minimal inhibitory concentration (MIC) [21]: 1.56; minimal inhibitory concentration (MIC) [22]: 0.78; minimal inhibitory concentration (MIC) [23]: 1.56; minimal inhibitory concentration (MIC) [24]: 0.39; minimal inhibitory concentration (MIC) [25]: 0.195; ED50 [26, 28]: 106 mg/kg; ED50 [26, 29]: 6 mg/kg; mortality at 30 mg/kg [27]: 0%
CCC1OC(=O)CC(O)C(C)C(OC2OC(C)C(O)C(N(C)C)C2O)C(CC=O)CC(C)C(=O)C=CC(C)=CC1COC(=O)C(C)(C)C (centres unmarked) [Compound 68]	1	2	0.25	0.25	0.25	0.25	0.25	0.25	0.25	0.25	0.06	0.125	0.097	0.097	< 0.048	6.25	3.12	6.25	3.12	3.12	minimal inhibitory concentration (MIC) [21]: 3.12; minimal inhibitory concentration (MIC) [22]: 3.12; minimal inhibitory concentration (MIC) [23]: 1.56; minimal inhibitory concentration (MIC) [24]: 1.56; minimal inhibitory concentration (MIC) [25]: < 0.78; ED50 [26, 28]: > 100 mg/kg; ED50 [26, 29]: 3.8 mg/kg; mortality at 30 mg/kg [27]: 0%
CCC1OC(=O)CC(O)C(C)C(OC2OC(C)C(O)C(N(C)C)C2O)C(CC=O)CC(C)C(=O)C=CC(C)=CC1COC(C)=O (centres unmarked) [Compound 13, 23-O-Acetyl-OMT]	1	4	0.25	0.25	0.25	0.5	0.25	0.25	0.5	0.25	0.125	0.125	0.05	0.78	0.097	3.12	3.12	6.25	1.56	1.56	minimal inhibitory concentration (MIC) [21]: 3.12; minimal inhibitory concentration (MIC) [22]: 1.56; minimal inhibitory concentration (MIC) [23]: 1.56; minimal inhibitory concentration (MIC) [24]: 0.39; minimal inhibitory concentration (MIC) [25]: 0.195; ED50 [26, 28]: 109 mg/kg; ED50 [26, 29]: 3.3 mg/kg; mortality at 30 mg/kg [27]: 0%
